{"source": "patent US20050239826A1", "about": "(Boehringer Ingelheim International GmbH, priority 2004, published 2005)", "key": {"hMCH-1R": {"biological_target": "T1, hMCH-1R (Homo sapiens, UniProt Q99705)", "T1 construct": "expressed in transfected cells", "T1 sequence (Q99705 whole entry)": "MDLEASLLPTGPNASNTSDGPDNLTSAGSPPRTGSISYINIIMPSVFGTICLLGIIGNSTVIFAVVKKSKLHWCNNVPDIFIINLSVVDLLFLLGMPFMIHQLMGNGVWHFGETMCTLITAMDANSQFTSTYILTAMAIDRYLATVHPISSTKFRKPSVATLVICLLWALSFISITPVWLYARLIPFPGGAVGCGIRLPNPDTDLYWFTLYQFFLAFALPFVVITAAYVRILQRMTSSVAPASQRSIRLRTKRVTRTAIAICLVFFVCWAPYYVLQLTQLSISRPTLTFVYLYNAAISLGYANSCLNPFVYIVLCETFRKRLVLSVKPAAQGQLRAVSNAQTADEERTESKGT", "experiment": "MCH-1 receptor binding test (125I-MCH binding to membranes of hMCH-1R transfected CHO/Galpha16 cells)", "conditions": "100 pM 125I-MCH", "protocol": "After the incubation the reaction is filtered using a cell harvester through 0.5% PEI treated fibreglass filters (GF/B, Unifilter Packard). The membrane-bound radioactivity retained on the filter is then determined after the addition of scintillator substance (Packard Microscint 20) in a measuring device (TopCount of Packard). […] The analysis of the concentration binding curve is carried out on the assumption of one receptor binding site."}, "[1]": {"conditions": "rats, intraventricular administration, compared with control animals; cited from earlier work"}, "[2]": {"conditions": "rats; cited from earlier work"}, "[3]": {"conditions": "long term trials, treated animals; cited from earlier work"}}}
{"smiles": "Cc1cc(C#Cc2ccc(-c3ccc(Cl)cc3)cn2)ccc1OCCN1CC[C@H](O)[C@](C)(O)C1", "note": "[Example 1.5, (3R,4S)-1-(2-{4-[5-(4-chloro-phenyl)-pyridin-2-ylethynyl]-2-methyl-phenoxy}-ethyl)-3-methyl-piperidine-3,4-diol]", "values": [{"measurement": "IC50", "setting": "hMCH-1R", "value": 10.9, "unit": "nM"}]}
{"smiles": "OCCCN(CCOc1ccc(C#Cc2ccc(-c3ccc(Cl)cc3)cn2)cc1)CC1(O)CC1", "note": "[Example 2.20, 1-{[(2-{4-[5-(4-chloro-phenyl)-pyridin-2-ylethynyl]-phenoxy}-ethyl)-(3-hydroxy-propyl)-amino]-methyl}-cyclopropanol]", "values": [{"measurement": "IC50", "setting": "hMCH-1R", "value": 13.8, "unit": "nM"}]}
{"smiles": "CSCC[C@@H]1NC(=O)[C@@H](NC(=O)[C@H](CCCNC(=N)N)NC(=O)[C@H](CC(C)C)NC(=O)[C@H](CCSC)NC(=O)[C@H](CC(=O)O)NC(=O)[C@H](Cc2ccccc2)NC(=O)[C@@H](N)CC(=O)O)CSSC[C@@H](C(=O)N[C@@H](Cc2c[nH]c3ccccc23)C(=O)N[C@@H](CCC(N)=O)C(=O)N[C@H](C(=O)O)C(C)C)NC(=O)[C@@H]2CCCN2C(=O)[C@H](CCCNC(=N)N)NC(=O)[C@H](Cc2ccc(O)cc2)NC(=O)[C@H](C(C)C)NC(=O)[C@H](CCCNC(=N)N)NC(=O)CNC(=O)[C@H](CC(C)C)NC1=O", "note": "[MCH, Melanin-concentrating hormone]", "values": [{"measurement": "food intake", "setting": "[1]", "value": "food intake was increased"}]}
{"smiles": "COCC1=C(C(=O)OC)[C@H](c2ccc(F)c(F)c2)N(C(=O)NCCCN2CCC(c3cccc(NC(C)=O)c3)CC2)C(=O)N1", "note": "[SNAP-7941]", "values": [{"measurement": "effects in behavioural experiments", "setting": "[2]", "value": "anxiolytic and antidepressant effects"}, {"measurement": "body weight", "setting": "[3]", "value": "lose significant amounts of weight"}]}
